Holding throughout (assay): Test E pre-/postemergence herbicide test
One test concerns Surinam grass. The test is classed as in vivo, Urochloa decumbens. The text has this:
(§1) Seeds of plant species selected from bipinnate beggarticks (Bidens bipinnata L.), hairy beggarticks (Bidens radiata Thuill.), bermudagrass (Cynodon dactylon (L.) Pers.), Surinam grass (Urochloa decumbens (Staph) R. D. Webster, previously named Brachiaria decumbens Stapf), large crabgrass (Digitaria sanguinalis (L.) Scop.), green foxtail (Setaria viridis (L.) P. Beauv.), goosegrass (Eleusine indica (L.) Gaertn.), johnsongrass (Sorghum halepense (L.) Pers.), kochia (Kochia scoparia (L.) Schrad.), pitted morningglory (Ipomoea lacunosa L.), purple nutsedge (Cyperus rotundus L.), common ragweed (Ambrosia elatior L.), mustard (Brassica nigra (L.) W. D. J. Koch), guineagrass (Panicum maximum Jacq.), dallisgrass (Paspalum dilatatum Poir.), barnyardgrass (Echinochloa crus-galli (L). P. Beauv.), southern sandbur (Cenchrus echinatus L.), common sowthistle (Sonchus oleraceous L.), prickly sida (Sida spinosa L.), Italian ryegrass (Lolium multiflorum Lam.), common purslane (Portulaca oleracea L.), broadleaf signalgrass (Brachiaria platyphylla (Griseb.) Nash), common groundsel (Senecio vulgaris L.), common chickweed (Stellaria media (L.) Vill/Cyr.), tropical spiderwort (Commelina benghalensis L.), annual bluegrass (Poa annua L.), downy bromegrass (Bromus tectorum L.), itchgrass (Rottboellia cochinchinensis (L.) L.f.), quackgrass (Elytrigia repens (L.) Nevski), Canada horseweed (Erigeron Canadensis L.), field bindweed (Convolvulus arvensis L.), spotted spurge (Euphorbia maculata L.), common mallow (Malva sylvestris (=s silvestris) L.), and Russian thistle (Salsola kali L. ssp. Ruthenica (Iljin) Soo) were planted and treated preemergence with test chemicals formulated in a non-phytotoxic solvent mixture which included a surfactant.
(§2) At the same time, plants selected from these weed species were treated with postemergence applications of some of the test chemicals formulated in the same manner. Plants ranged in height from 2 to 18 cm (1- to 4-leaf stage) for postemergence treatments. Treated plants and controls were maintained in a greenhouse for 12 to 14 days, after which time all species were compared to controls and visually evaluated. Plant response ratings, summarized in Table E, are based on a scale of 0 to 100 where 0 is no effect and 100 is complete control. A dash (-) response means no test result.

In the next test the test system is common mallow. The test is classed as in vivo, Malva sylvestris.
Description: as §1, §2

A further test concerns goosegrass. The test is classed as in vivo, Eleusine indica.
Description: as §1, §2

For the next test, the system named is guineagrass. In kind it is in vivo, Panicum maximum.
Description: as §1, §2

For the next test, the system named is bermudagrass. The test is classed as in vivo, Cynodon dactylon.
Description: as §1, §2

A further test deals with common purslane. The test is classed as in vivo, Portulaca oleracea. The settings on record: Preemergence.
Description: as §1, §2

The next test deals with common groundsel. The test is classed as in vivo, Senecio vulgaris.
Description: as §1, §2

Where [1] appears, read: Preemergence, 125 g ai/ha, scale 0 to 100.
Setting [2] is: Preemergence, 500 g ai/ha, scale 0 (no effect) to 100 (complete control).
[3] abbreviates: Preemergence, 62 g ai/ha, scale 0 to 100.
Where [4] appears, read: Preemergence, 250 g ai/ha, scale 0 (no effect) to 100 (complete control).
Setting [5] is: 250 g ai/ha, scale 0 (no effect) to 100 (complete control).
[6] abbreviates: 500 g ai/ha, scale 0 (no effect) to 100 (complete control).
[7] abbreviates: Postemergence, 250 g ai/ha, scale 0 to 100.
Where [8] appears, read: postemergence, 125 g ai/ha, scale 0 to 100.
[9] abbreviates: postemergence, 62 g ai/ha, scale 0 to 100.
Setting [10] is: Preemergence, 125 g ai/ha, scale 0 (no effect) to 100 (complete control).

The structures appear in SMILES notation.

Consider `CCc1nn(C(C)(C)C)nc1C(=O)Nc1cccc(C(=S)N(C)C)c1` [Compound 395], for which the “Plant response rating, Surinam Grass” value with Surinam grass (setting [1]) was 75; in the test on Surinam grass (setting [2]), 90. In addition, the “Plant response rating, Mallow” value is recorded as 20 with common mallow (setting [3]), 50 with common mallow (setting [1]) and 60 in the test on common mallow (setting [2]). The “Plant response rating, Goosegrass” value in the test with goosegrass (setting [3]) amounted to 80; in the test with goosegrass (setting [1]) it was 80; in the test with goosegrass (setting [4]) it was 90; in the test with goosegrass (setting [2]) it was 95. Moreover, the “Plant response rating, Guineagrass” value stood at 80 in the test with guineagrass (setting [3]), 100 in the test on guineagrass (setting [1]), 100 with guineagrass (setting [4]) and 100 in the test on guineagrass (setting [2]). Further, the “Plant response rating, Bermudagrass” value was 90 with bermudagrass (setting [3]), 95 in the test on bermudagrass (setting [1]), 95 in the test with bermudagrass (setting [4]) and 95 with bermudagrass (setting [2]).
With `Cc1nn(C(C)(C)C)nc1C(=O)Nc1cccc(C(=O)N2CC=CC2)c1` [Compound 393], the “Plant response rating, Surinam Grass” value in the test on Surinam grass (setting [1]) was found to be 20; in the test on Surinam grass (setting [2]), 70. For the same molecule, the “Plant response rating, Mallow” value with common mallow (setting [3]) was 10; with common mallow (setting [1]), 60; with common mallow (setting [4]), 95; with common mallow (setting [2]) it was 95. The “Plant response rating, Goosegrass” value in the test with goosegrass (setting [3]) came out at 10; in the test on goosegrass (setting [1]), 50; in the test on goosegrass (setting [4]), 95; with goosegrass (setting [2]), 95. Moreover, the “Plant response rating, Guineagrass” value worked out at 10 in the test with guineagrass (setting [3]), 70 in the test on guineagrass (setting [1]), 90 in the test on guineagrass (setting [4]) and 95 in the test with guineagrass (setting [2]). For the same molecule, the “Plant response rating, Bermudagrass” value in the test on bermudagrass (setting [3]) stood at 40; with bermudagrass (setting [1]), 90; in the test with bermudagrass (setting [4]) it was 95; in the test on bermudagrass (setting [2]), 100.
On to `CCNC(=O)c1cccc(NC(=O)c2nn(C(C)(C)C)nc2C)c1` [Compound 392], for which the “Plant response rating, Surinam Grass” value with Surinam grass (setting [1]) worked out at 60; in the test with Surinam grass (setting [2]), 95. Besides, the “Plant response rating, Mallow” value in the test on common mallow (setting [3]) is on record as 10; in the test with common mallow (setting [1]) it was 80; in the test with common mallow (setting [4]) it was 95; with common mallow (setting [2]), 95. Also, the “Plant response rating, Goosegrass” value with goosegrass (setting [3]) came to 20; in the test with goosegrass (setting [1]), 70; with goosegrass (setting [4]) it was 85; with goosegrass (setting [2]), 95. Further, the “Plant response rating, Purslane” value with common purslane (125 g ai/ha, scale 0 to 100) is listed as 90; with common purslane (setting [5]), 100; in the test on common purslane (setting [6]), 100. Further, the “Plant response rating, Guineagrass” value with guineagrass (setting [3]) is 75; in the test on guineagrass (setting [1]), 80; with guineagrass (setting [4]) it was 95; with guineagrass (setting [2]) it was 100. Further, the “Plant response rating, Bermudagrass” value in the test on bermudagrass (setting [3]) is given as 60; in the test with bermudagrass (setting [1]), 60; in the test with bermudagrass (setting [4]), 85; in the test on bermudagrass (setting [2]), 90. Besides, the “Plant response rating, Groundsel” value was 10 with common groundsel (setting [3]), 60 with common groundsel (setting [1]), 60 with common groundsel (setting [4]) and 95 in the test with common groundsel (setting [2]).
Turning to `CCc1nn(C(C)(C)C)nc1C(=O)Nc1cccc(C(=O)N(C)CC)c1` [Compound 384], the “Plant response rating, Surinam Grass” value with Surinam grass (setting [1]) is recorded as 60; in the test with Surinam grass (setting [2]) it was 95. Moreover, the “Plant response rating, Mallow” value with common mallow (setting [3]) was 50; in the test on common mallow (setting [1]), 70; in the test on common mallow (setting [4]) it was 70; with common mallow (setting [2]), 95. Further, the “Plant response rating, Goosegrass” value was 60 with goosegrass (setting [3]), 80 in the test with goosegrass (setting [1]), 85 in the test with goosegrass (setting [4]) and 95 in the test with goosegrass (setting [2]). Also, the “Plant response rating, Guineagrass” value is 95 in the test on guineagrass (setting [3]), 95 in the test with guineagrass (setting [1]), 95 with guineagrass (setting [4]) and 100 in the test on guineagrass (setting [2]). Further, the “Plant response rating, Bermudagrass” value in the test on bermudagrass (setting [3]) turned out to be 80; in the test on bermudagrass (setting [1]), 95; in the test on bermudagrass (setting [4]), 95; in the test with bermudagrass (setting [2]), 95.
For the molecule `CCNC(=O)c1ccc(F)c(NC(=O)c2cc(C(C)(C)C)nn2CC)c1` [Compound 2, 3-(1,1-dimethylethyl)-1-ethyl-N-[5-[(ethylamino)carbonyl]-2-fluorophenyl]-1H-pyrazole-5-carboxamide], the “Plant response rating, Surinam Grass” value was determined as 100 with Surinam grass (setting [7]); 60 with Surinam grass (setting [3]); 80 in the test on Surinam grass (setting [1]); 80 in the test with Surinam grass (setting [4]); 90 with Surinam grass (setting [2]); 90 with Surinam grass (setting [8]). In addition, in the test on Surinam grass (setting [9]), the “Plant response rating, Surinam Grass” value is listed as 75. Also, the “Plant response rating, Mallow” value in the test on common mallow (setting [7]) is recorded as 80; with common mallow (setting [3]) it was 30; in the test on common mallow (setting [4]), 50; with common mallow (setting [2]) it was 80; in the test on common mallow (setting [8]), 75; with common mallow (setting [9]), 50. Also, the “Plant response rating, Goosegrass” value with goosegrass (setting [7]) is on record as 98; with goosegrass (setting [3]), 80; in the test with goosegrass (setting [10]), 90; with goosegrass (setting [4]) it was 95; in the test with goosegrass (setting [2]), 95; with goosegrass (setting [8]), 95. The “Plant response rating, Goosegrass” value with goosegrass (setting [9]) is recorded as 95. The “Plant response rating, Purslane” value stood at 100 in the test on common purslane (125 g ai/ha, scale 0 (no effect) to 100 (complete control)); 100 in the test with common purslane (setting [5]); 100 with common purslane (setting [6]). The “Plant response rating, Guineagrass” value in the test with guineagrass (setting [7]) was 95; in the test on guineagrass (setting [3]) it was 70; in the test on guineagrass (setting [10]) it was 80; in the test with guineagrass (setting [4]), 100; in the test with guineagrass (setting [2]), 100; in the test with guineagrass (setting [8]) it was 75. Further, in the test with guineagrass (setting [9]), the “Plant response rating, Guineagrass” value came out at 30. In addition, the “Plant response rating, Bermudagrass” value was 90 with bermudagrass (setting [7]); 90 in the test with bermudagrass (setting [3]); 95 in the test with bermudagrass (setting [10]); 100 in the test on bermudagrass (setting [4]); 100 with bermudagrass (setting [2]); 85 in the test with bermudagrass (setting [8]). The “Plant response rating, Bermudagrass” value in the test on bermudagrass (setting [9]) stood at 20. The “Plant response rating, Groundsel” value with common groundsel (setting [7]) is listed as 80; in the test with common groundsel (setting [3]), 60; with common groundsel (setting [10]), 70; in the test with common groundsel (setting [4]), 100; in the test on common groundsel (setting [2]), 100.
